Measurements reported in patent US8546421B1, “Oncogenic-RAS-signal dependent lethal compounds” (The Trustees of Columbia University in the City of New York, priority 2007, dated 2013).

Test system: 60 different human cancer cell lines (the NCI60 panel)
Assay: NCI60 anti-cancer screening, whole panel
Assay type: cell-based
Description: NCI60 anti-cancer screening (“NCI60 test”) is a system that provides an opportunity to assess a drug candidate's potency and selectivity at a relatively early stage of drug discovery. […] Such compounds would be expected to kill sensitive cancer cells while having minimal effect on healthy cells in a predetermined concentration range. NCI60 anti-cancer screening makes use of 60 cancer cell lines from different human tissue origins. Cells are seeded on a 96-well plate, treated with lethal compounds in 5-point, 10-fold dilution series pattern starting at 100 μM (i.e. 10 nM, 100 nM, 1 μM, 10 μM, 100 μM) for 2 days, and measured for cell viability using sulforhodamine B dye. The optical densities of treated samples are determined using a plate reader and percent growth value is calculated by processing the optical density value.
The entire NCI60 test is replicated at least twice to ensure consistency of the data and to determine accurate GI50, TGI and LC50 values. The panel of results for each candidate compound in the NCI60 test is known as the “sensitivity profile.”

Compound: COC(=O)c1ccc(C2c3[nH]c4ccccc4c3CC(C(=O)OC)N2C(=O)CCl)cc1 (centres unmarked) [Compound 27]
- difference in sensitivity between resistant and sensitive cell lines: up to 10^4 fold
- potency / selectivity in NCI60 (in words): nanomolar (nM) concentration range
